Data as given in patent US8999664B2, “Method of improving salmon meat color” (JX Nippon Oil & Energy Corporation, priority 2006, dated 2015).

Tests used:
[1] = Carotenoid content in fish flesh of Atlantic salmon by HPLC; assay type: in vivo, Salmo salar; conditions: for Ratio to astaxanthin: Atlantic salmon fish flesh; for Ratio to astaxanthin / Content in fish flesh: 12 months; for Content in fish flesh / concentration at 12 months: Atlantic salmon, flesh frozen 1 month, average of 20 fish; for concentration at 12 months: Atlantic salmon (Salmo salar), oral
Method: In the examples, the quantification of the carotenoid colorant was performed using high performance liquid chromatography (HPLC). Two columns of Wakosil-II 5 SIL-100 φ4.6×250 mm (produced by Wako Pure Chemical Industries, Ltd.) were connected to each other. An n-hexane:tetrahydrofuran:methanol (40:20:1) mixed solution was used as a mobile phase. A constant room temperature and a flow rate of 1.0 ml/min were used. The detection was performed at a wavelength of 470 nm. The feed or fish flesh was milled, and then the colorant was extracted with a tetrahydrofuran:methanol (20:1) mixed solution. The colorant was appropriately diluted with the mobile phase and analyzed by HPLC. 400 Atlantic salmons (Salmo salar) each weighing about 300 g were cultivated as a test division of being fed with the above-described fermented product, and another 400 Atlantic salmons each weighing about 300 g were cultivated as a test division of being fed with the above-described synthetic product. The salmons were fed in satiation in a marine fish pen for 12 months. After the 12 months of cultivating, 20 fish of each test division were landed and weighed. […] The fish were immediately killed by cutting medulla, and the fish flesh was measured in terms of the color tone by a spectrometer. […] After the measurement, the fish flesh was frozen for preservation for 1 month. After being thawed, the fish flesh of the 20 fish of each test division was analyzed in terms of the content of each carotenoid compound.

[2] = Carotenoid content in fish flesh of king salmon by HPLC; assay type: in vivo, Oncorhynchus tshawytscha; conditions: for Ratio to astaxanthin: king salmon fish flesh; for Ratio to astaxanthin / Content in fish flesh: 3 months; for Content in fish flesh / concentration at 3 months: king salmon, flesh frozen 1 month, average of 15 fish; for concentration at 3 months: king salmon (Oncorhynchus tshawytscha), oral
Method: In the examples, the quantification of the carotenoid colorant was performed using high performance liquid chromatography (HPLC). Two columns of Wakosil-II 5 SIL-100 φ4.6×250 mm (produced by Wako Pure Chemical Industries, Ltd.) were connected to each other. An n-hexane:tetrahydrofuran:methanol (40:20:1) mixed solution was used as a mobile phase. A constant room temperature and a flow rate of 1.0 ml/min were used. The detection was performed at a wavelength of 470 nm. The feed or fish flesh was milled, and then the colorant was extracted with a tetrahydrofuran:methanol (20:1) mixed solution. The colorant was appropriately diluted with the mobile phase and analyzed by HPLC. 100 king salmons (Oncorhynchus tshawytscha) each weighing about 200 g were cultivated as a test division of being fed with the above-described fermented product, and another 100 king salmons each weighing about 200 g were cultivated as a test division of being fed with the above-described synthetic product. The salmons were fed in satiation in a marine fish pen for 3 months. After the 3 months of cultivating, 15 fish of each test division were sampled and weighed. […] The fish were immediately killed by cutting medulla. […] After the measurement, the fish flesh was frozen for preservation for 1 month. After being thawed, the fish flesh of the fish of each test division was analyzed in terms of the content of each carotenoid compound.

[3] = Carotenoid content in fish flesh of silver salmon by HPLC; assay type: in vivo, Oncorhynchus kisutch; conditions: for Ratio to astaxanthin: silver salmon fish flesh; for Ratio to astaxanthin / Content in fish flesh: 6 months; for Content in fish flesh / concentration at 6 months: silver salmon, average of 10 fish; for concentration at 6 months: silver salmon (Oncorhynchus kisutch), fish flesh, oral
Method: In the examples, the quantification of the carotenoid colorant was performed using high performance liquid chromatography (HPLC). Two columns of Wakosil-II 5 SIL-100 φ4.6×250 mm (produced by Wako Pure Chemical Industries, Ltd.) were connected to each other. An n-hexane:tetrahydrofuran:methanol (40:20:1) mixed solution was used as a mobile phase. A constant room temperature and a flow rate of 1.0 ml/min were used. The detection was performed at a wavelength of 470 nm. The feed or fish flesh was milled, and then the colorant was extracted with a tetrahydrofuran:methanol (20:1) mixed solution. The colorant was appropriately diluted with the mobile phase and analyzed by HPLC. 300 silver salmons (Oncorhynchus kisutch) each weighing about 200 g were cultivated as a test division of being fed with the above-described fermented product, and another 300 silver salmons each weighing about 200 g were cultivated as a test division of being fed with the above-described synthetic product. The salmons were fed in satiation in a marine fish pen for 6 months. After the 6 months of cultivating, 10 fish of each test division were weighed. […] The fish were immediately killed by cutting medulla and frozen for preservation. After being thawed, the fish flesh was milled by a coffee mill, and a part thereof was put into a polyethylene bag to measure the color tone thereof by a spectrometer CM-508i (Minolta). […] From a part of the milled fish flesh, the carotenoid colorant was extracted, and analyzed in terms of the content of each carotenoid compound by HPLC.

[4] = Carotenoid content in fish flesh of rainbow trout by HPLC; assay type: in vivo, Oncorhynchus mykiss; conditions: for Ratio to astaxanthin: rainbow trout fish flesh; for Ratio to astaxanthin / Content in fish flesh: 3 months; for Content in fish flesh / concentration at 3 months: rainbow trout, average of 12 fish; for concentration at 3 months: rainbow trout (Oncorhynchus mykiss), fish flesh, oral
Method: In the examples, the quantification of the carotenoid colorant was performed using high performance liquid chromatography (HPLC). Two columns of Wakosil-II 5 SIL-100 φ4.6×250 mm (produced by Wako Pure Chemical Industries, Ltd.) were connected to each other. An n-hexane:tetrahydrofuran:methanol (40:20:1) mixed solution was used as a mobile phase. A constant room temperature and a flow rate of 1.0 ml/min were used. The detection was performed at a wavelength of 470 nm. The feed or fish flesh was milled, and then the colorant was extracted with a tetrahydrofuran:methanol (20:1) mixed solution. The colorant was appropriately diluted with the mobile phase and analyzed by HPLC. 50 rainbow trouts (Oncorhynchus mykiss) each weighing about 100 g were cultivated in a water tank as a test division of being fed with the above-described fermented product, and another 50 rainbow trouts each weighing about 100 g were cultivated in a water tank as a test division of being fed with the above-described synthetic product. The trouts of each test division were fed in satiation in fresh water for 3 months. After the 3 months of cultivating, 12 fish of each test division were weighed. […] The fish were immediately killed by cutting medulla. […] After the measurement, the fish flesh was frozen for preservation. After being thawed, the fish flesh of the 12 fish of each test division was analyzed in terms of the content of each carotenoid compound.

## CC1=C(/C=C/C(C)=C/C=C/C(C)=C/C=C/C=C(C)/C=C/C=C(C)/C=C/C2=C(C)C(=O)CCC2(C)C)C(C)(C)CCC1 [Equinenone]
[1]; Fermented product division
  Ratio to astaxanthin: 0.5 or less %
  Content in fish flesh: 0.02 or less mg/kg
[1]; Synthetic product division
  Content in fish flesh: 0.02 or less mg/kg
[2]; Fermented product division
  Ratio to astaxanthin: 0.5 or less %
  Content in fish flesh: 0.02 or less mg/kg
[2]; Synthetic product division
  Content in fish flesh: 0.02 or less mg/kg
[3]; Fermented product division
  Ratio to astaxanthin: 0.2 or less %
  Content in fish flesh: 0.02 or less mg/kg
[3]; Synthetic product division
  Content in fish flesh: 0.02 or less mg/kg
[4]; Fermented product division
  Ratio to astaxanthin: 0.6 or less %
  Content in fish flesh: 0.02 or less mg/kg
[4]; Synthetic product division
  Content in fish flesh: 0.02 or less mg/kg

## CC1=C(/C=C/C(C)=C/C=C/C(C)=C/C=C/C=C(C)/C=C/C=C(C)/C=C/C2=C(C)C(=O)[C@@H](O)CC2(C)C)C(C)(C)C[C@H](O)C1 [Adonixanthin]
[1]; Fermented product division
  Ratio to astaxanthin: 4.9%
  Content in fish flesh: 0.2 mg/kg
[1]; Synthetic product division
  Content in fish flesh: 0.02 or less mg/kg
[2]; Fermented product division
  Ratio to astaxanthin: 6.5%
  Content in fish flesh: 0.3 mg/kg
[2]; Synthetic product division
  Content in fish flesh: 0.02 or less mg/kg
[3]; Fermented product division
  Ratio to astaxanthin: 23.1%
  Content in fish flesh: 2.4 mg/kg
[3]; Synthetic product division
  Content in fish flesh: 0.02 or less mg/kg
[4]; Fermented product division
  Ratio to astaxanthin: 2.9%
  Content in fish flesh: 0.1 mg/kg
[4]; Synthetic product division
  Content in fish flesh: 0.02 or less mg/kg

## CC1=C(/C=C/C(C)=C/C=C/C(C)=C/C=C/C=C(C)/C=C/C=C(C)/C=C/C2=C(C)C(=O)[C@@H](O)CC2(C)C)C(C)(C)CCC1=O [Phoenicoxanthin]
[1]; Fermented product division
  Ratio to astaxanthin: 41.5%
  Content in fish flesh: 1.7 mg/kg
[1]; Synthetic product division
  Content in fish flesh: 0.02 or less mg/kg
[2]; Fermented product division
  Ratio to astaxanthin: 45.7%
  Content in fish flesh: 2.1 mg/kg
[2]; Synthetic product division
  Content in fish flesh: 0.02 or less mg/kg
[3]; Fermented product division
  Ratio to astaxanthin: 11.5%
  Content in fish flesh: 1.2 mg/kg
[3]; Synthetic product division
  Content in fish flesh: 0.02 or less mg/kg
[4]; Fermented product division
  Ratio to astaxanthin: 67.6%
  Content in fish flesh: 2.3 mg/kg
[4]; Synthetic product division
  Content in fish flesh: 0.02 or less mg/kg

## CC1=C(/C=C/C(C)=C/C=C/C(C)=C/C=C/C=C(C)/C=C/C=C(C)/C=C/C2=C(C)C(=O)[C@@H](O)CC2(C)C)C(C)(C)CCC1 [3-hydroxyequinenone]
[1]; Fermented product division
  Ratio to astaxanthin: 0.5 or less %
  Content in fish flesh: 0.02 or less mg/kg
[1]; Synthetic product division
  Content in fish flesh: 0.02 or less mg/kg
[2]; Fermented product division
  Ratio to astaxanthin: 0.5 or less %
  Content in fish flesh: 0.02 or less mg/kg
[2]; Synthetic product division
  Content in fish flesh: 0.02 or less mg/kg
[3]; Fermented product division
  Ratio to astaxanthin: 0.2 or less %
  Content in fish flesh: 0.02 or less mg/kg
[3]; Synthetic product division
  Content in fish flesh: 0.02 or less mg/kg
[4]; Fermented product division
  Ratio to astaxanthin: 0.6 or less %
  Content in fish flesh: 0.02 or less mg/kg
[4]; Synthetic product division
  Content in fish flesh: 0.02 or less mg/kg

## CC1=C(/C=C/C(C)=C/C=C/C(C)=C/C=C/C=C(C)/C=C/C=C(C)/C=C/C2=C(C)C(=O)[C@@H](O)CC2(C)C)C(C)(C)C[C@H](O)C1=O [Astaxanthin]
[1]; 79.8 mg/kg feed, Fermented product division
  concentration at 12 months: 4100 ng/g
[1]; 81.6 mg/kg feed, Synthetic product division
  concentration at 12 months: 6200 ng/g
[1]; Fermented product division
  Ratio to astaxanthin: 100%
[2]; Fermented product division
  Ratio to astaxanthin: 100%
[2]; 70.3 mg/kg feed, Synthetic product division
  concentration at 3 months: 7200 ng/g
[2]; 72.7 mg/kg feed, Fermented product division
  concentration at 3 months: 4600 ng/g
[3]; Fermented product division
  Ratio to astaxanthin: 100%
[3]; 43.2 mg/kg feed, Fermented product division
  concentration at 6 months: 10400 ng/g
[3]; 44.3 mg/kg feed, Synthetic product division
  concentration at 6 months: 12700 ng/g
[4]; Fermented product division
  Ratio to astaxanthin: 100%
[4]; 63.2 mg/kg feed, Fermented product division
  concentration at 3 months: 3400 ng/g
[4]; 64.6 mg/kg feed, Synthetic product division
  concentration at 3 months: 6300 ng/g

## CC1=C(/C=C/C(C)=C/C=C/C(C)=C/C=C/C=C(C)/C=C/C=C(C)/C=C/C2=C(C)C(=O)CCC2(C)C)C(C)(C)CCC1=O [Canthaxanthin]
[1]; Fermented product division
  Ratio to astaxanthin: 9.8%
  Content in fish flesh: 0.4 mg/kg
[1]; Synthetic product division
  Content in fish flesh: 0.02 or less mg/kg
[2]; Fermented product division
  Ratio to astaxanthin: 6.5%
  Content in fish flesh: 0.3 mg/kg
[2]; Synthetic product division
  Content in fish flesh: 0.02 or less mg/kg
[3]; Fermented product division
  Ratio to astaxanthin: 1.0%
  Content in fish flesh: 0.1 mg/kg
[3]; Synthetic product division
  Content in fish flesh: 0.02 or less mg/kg
[4]; Fermented product division
  Ratio to astaxanthin: 11.8%
  Content in fish flesh: 0.4 mg/kg
[4]; Synthetic product division
  Content in fish flesh: 0.02 or less mg/kg

## CC1=C(/C=C/C(C)=C/C=C/C(C)=C/C=C/C=C(C)/C=C/C=C(C)/C=C/C2=C(C)CCCC2(C)C)C(C)(C)CCC1 [β-carotin]
[1]; Fermented product division
  Ratio to astaxanthin: 0.5 or less %
  Content in fish flesh: 0.02 or less mg/kg
[1]; Synthetic product division
  Content in fish flesh: 0.02 or less mg/kg
[2]; Fermented product division
  Ratio to astaxanthin: 0.5 or less %
  Content in fish flesh: 0.02 or less mg/kg
[2]; Synthetic product division
  Content in fish flesh: 0.02 or less mg/kg
[3]; Fermented product division
  Ratio to astaxanthin: 0.2 or less %
  Content in fish flesh: 0.02 or less mg/kg
[3]; Synthetic product division
  Content in fish flesh: 0.02 or less mg/kg
[4]; Fermented product division
  Ratio to astaxanthin: 0.6 or less %
  Content in fish flesh: 0.02 or less mg/kg
[4]; Synthetic product division
  Content in fish flesh: 0.02 or less mg/kg

## Asteroidenone
[1]; Fermented product division
  Ratio to astaxanthin: 2.4%
  Content in fish flesh: 0.1 mg/kg
[1]; Synthetic product division
  Content in fish flesh: 0.02 or less mg/kg
[2]; Fermented product division
  Ratio to astaxanthin: 2.2%
  Content in fish flesh: 0.1 mg/kg
[2]; Synthetic product division
  Content in fish flesh: 0.02 or less mg/kg
[3]; Fermented product division
  Ratio to astaxanthin: 1.9%
  Content in fish flesh: 0.2 mg/kg
[3]; Synthetic product division
  Content in fish flesh: 0.02 or less mg/kg
[4]; Fermented product division
  Ratio to astaxanthin: 2.9%
  Content in fish flesh: 0.1 mg/kg
[4]; Synthetic product division
  Content in fish flesh: 0.02 or less mg/kg
